Data reported in US9290478B2, “Substituted quinoxalines as FGFR kinase inhibitors” (ASTEX THERAPEUTICS LTD, priority 2010, dated 2016).

Tests used:
FGFR2 (h) = FGFR2 (h) (Homo sapiens, UniProt P21802); test: FGFR2 (enzymatic assay), TR-FRET; type: biochemical; details: 0.4 μM ATP; read-out: FGFR2 pIC50 (converted)
Description: In a final reaction volume of 30 μL, FGFR2 (h) (150 ng/ml) was incubated with 50 mM HEPES pH 7.5, 6 mM MnCl2, 1 mM DTT, 0.1 mM Na3VO4, 0.01% Triton-X-100, 500 nM Btn-Flt3 and 0.4 μM ATP in the presence of compound (1% DMSO final). After incubation for 60 minutes at room temperature the reaction was stopped with 2.27 nM EU-anti P-Tyr, 7 mM EDTA, 31.25 nM SA-XL-665 and 0.02% BSA which was present for 60 minutes at room temperature. Time-Resolved Fluorescence Resonance Energy Transfer (TR-FRET) signal (ex340 nm. Em 620 nm, em 655 nm) was measured afterwards and results are expressed in (Relative Fluorescence Units). In this assay, the inhibitory effect of different compound concentrations (range 10 μM to 0.1 nM) was determined and used to calculate an IC50 (M) and pIC50 (−log IC50) value.

[1] = molecular target: T1, Ba/F3-KDR-transfected cells (Homo sapiens, UniProt P35968); test: Ba/F3-KDR (minus IL3 or plus IL3) cellular proliferation assay; type: cell-based; details: minus IL3
T1 construct: BAF3-KDR (MIN IL3) pIC50; other: minus IL3
T1 sequence (P35968 whole entry, change not shown): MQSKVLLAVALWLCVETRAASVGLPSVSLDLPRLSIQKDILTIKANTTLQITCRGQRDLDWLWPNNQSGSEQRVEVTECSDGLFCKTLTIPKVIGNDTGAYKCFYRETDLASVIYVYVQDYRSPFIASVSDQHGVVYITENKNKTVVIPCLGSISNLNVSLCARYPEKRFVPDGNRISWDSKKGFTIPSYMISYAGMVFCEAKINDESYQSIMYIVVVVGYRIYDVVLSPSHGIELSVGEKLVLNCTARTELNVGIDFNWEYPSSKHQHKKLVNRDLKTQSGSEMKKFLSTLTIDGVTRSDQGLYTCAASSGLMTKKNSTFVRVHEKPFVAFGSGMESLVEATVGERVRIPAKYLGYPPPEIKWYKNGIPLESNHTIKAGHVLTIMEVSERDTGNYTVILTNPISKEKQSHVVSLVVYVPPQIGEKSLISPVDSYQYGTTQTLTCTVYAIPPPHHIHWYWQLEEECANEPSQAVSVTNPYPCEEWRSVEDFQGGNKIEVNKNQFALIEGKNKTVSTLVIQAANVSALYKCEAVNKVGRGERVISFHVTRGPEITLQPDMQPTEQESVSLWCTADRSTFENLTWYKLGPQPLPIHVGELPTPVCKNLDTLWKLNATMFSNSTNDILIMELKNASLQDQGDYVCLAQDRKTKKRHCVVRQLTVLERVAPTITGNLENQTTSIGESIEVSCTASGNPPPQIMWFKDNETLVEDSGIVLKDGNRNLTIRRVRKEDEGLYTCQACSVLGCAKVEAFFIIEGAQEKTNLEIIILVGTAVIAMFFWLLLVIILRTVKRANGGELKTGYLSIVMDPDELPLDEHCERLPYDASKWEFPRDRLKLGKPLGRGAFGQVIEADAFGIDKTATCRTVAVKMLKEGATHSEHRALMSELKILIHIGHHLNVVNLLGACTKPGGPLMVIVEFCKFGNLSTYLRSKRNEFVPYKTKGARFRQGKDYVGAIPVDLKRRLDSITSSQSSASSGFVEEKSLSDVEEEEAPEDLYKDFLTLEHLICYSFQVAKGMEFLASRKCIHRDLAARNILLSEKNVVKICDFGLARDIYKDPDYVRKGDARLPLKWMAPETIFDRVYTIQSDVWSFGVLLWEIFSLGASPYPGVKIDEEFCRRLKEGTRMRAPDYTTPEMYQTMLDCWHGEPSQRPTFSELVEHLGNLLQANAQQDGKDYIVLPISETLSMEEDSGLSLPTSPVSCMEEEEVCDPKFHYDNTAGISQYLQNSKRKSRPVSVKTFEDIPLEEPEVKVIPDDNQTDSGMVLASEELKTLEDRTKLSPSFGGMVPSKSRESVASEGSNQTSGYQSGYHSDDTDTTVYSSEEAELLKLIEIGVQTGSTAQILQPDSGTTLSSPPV
Description: (§1) Ba/F3-KDR (Minus IL3 or Plus IL3) (Cellular Proliferation Assay)
(§2) In a 384 well plate, 100 nI of compound dilution in DMSO was sprayed before adding 50 μl cell culture medium (phenol red free RPMI-1640, 10% FBS, 2 mM L-Glutamine and 50 μg/ml Gentamycin) containing 20000 cells per well of Ba/F3-KDR-transfected cells. Cells were put in an incubator at 37° C. and 5% CO2. After 24 hours, 10 μl of Alamar Blue solution (0.5 mM K3Fe(CN)6, 0.5 mM K4Fe(CN)6, 0.15 mM Resazurin and 100 mM Phosphate Buffer) was added to the wells, incubated for 4 hours at 37° C. and 5% CO2 before RFU's (Relative Fluorescence Units) (ex. 540 nm., em. 590 nm.) were measured in a fluororescence plate reader.
(§3) In this assay, the inhibitory effect of different compound concentrations (range 10 μM to 0.1 nM) was determined and used to calculate an IC50 (M) and pIC50 (−log IC50) value. As a counterscreen the same experiment was performed in the presence of 10 ng/ml murine IL3.

[2] = system: Ba/F3-KDR-transfected cells; test: as above; type: cell-based; details: plus 10 ng/ml murine IL3 (counterscreen); for IC50: 24 h, read-out: BAF3-KDR (PLUS IL3) pIC50 (converted)
Description: as §1, §2, §3

[3] = molecular target: T2, Ba/F3-FGFR3-transfected cells (Homo sapiens, UniProt P22607); test: Ba/F3-FGFR3 (minus IL3 or plus IL3) cellular proliferation assay; type: cell-based; details: minus IL3
T2 construct: BAF3-FGFR3 (MIN IL3) pIC50; other: minus IL3
T2 sequence (P22607 whole entry, change not shown): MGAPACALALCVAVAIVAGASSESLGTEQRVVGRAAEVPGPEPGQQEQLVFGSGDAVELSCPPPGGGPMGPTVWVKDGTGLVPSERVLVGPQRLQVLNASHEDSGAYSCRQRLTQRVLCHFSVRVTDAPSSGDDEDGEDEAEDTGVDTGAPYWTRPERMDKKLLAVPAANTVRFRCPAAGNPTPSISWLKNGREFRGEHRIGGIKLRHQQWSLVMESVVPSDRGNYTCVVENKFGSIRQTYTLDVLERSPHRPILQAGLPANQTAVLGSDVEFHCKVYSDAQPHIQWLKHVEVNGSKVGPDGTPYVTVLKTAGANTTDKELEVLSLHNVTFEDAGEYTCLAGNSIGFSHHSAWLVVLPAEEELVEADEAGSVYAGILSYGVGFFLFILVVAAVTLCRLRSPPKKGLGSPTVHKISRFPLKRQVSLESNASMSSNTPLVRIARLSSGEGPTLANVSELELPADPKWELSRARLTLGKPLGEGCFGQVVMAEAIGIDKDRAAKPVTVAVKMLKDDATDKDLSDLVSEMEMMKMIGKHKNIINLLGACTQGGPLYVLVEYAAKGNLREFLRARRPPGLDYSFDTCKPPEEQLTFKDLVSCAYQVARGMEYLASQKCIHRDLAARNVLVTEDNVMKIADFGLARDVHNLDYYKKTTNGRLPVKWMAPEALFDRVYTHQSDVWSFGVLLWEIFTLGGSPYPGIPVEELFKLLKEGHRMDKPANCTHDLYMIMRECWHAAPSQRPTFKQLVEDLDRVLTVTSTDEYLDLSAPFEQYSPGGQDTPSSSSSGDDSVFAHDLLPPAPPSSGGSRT
Description: (§4) Ba/F3-FGFR3 (Minus IL3 or Plus IL3) (Cellular Proliferation Assay)
as §2, with “Ba/F3-FGFR3-transfected” for “Ba/F3-KDR-transfected”
as §3

[4] = system: Ba/F3-FGFR3-transfected cells; test: as above; type: cell-based; details: plus 10 ng/ml murine IL3 (counterscreen); for IC50: 24 h, read-out: BAF3-FGFR3 (PLUS IL3) pIC50 (converted)
Description: as §4
as §2, with “Ba/F3-FGFR3-transfected” for “Ba/F3-KDR-transfected”
as §3

Chain of FGFR2 (h) (P21802 22-821): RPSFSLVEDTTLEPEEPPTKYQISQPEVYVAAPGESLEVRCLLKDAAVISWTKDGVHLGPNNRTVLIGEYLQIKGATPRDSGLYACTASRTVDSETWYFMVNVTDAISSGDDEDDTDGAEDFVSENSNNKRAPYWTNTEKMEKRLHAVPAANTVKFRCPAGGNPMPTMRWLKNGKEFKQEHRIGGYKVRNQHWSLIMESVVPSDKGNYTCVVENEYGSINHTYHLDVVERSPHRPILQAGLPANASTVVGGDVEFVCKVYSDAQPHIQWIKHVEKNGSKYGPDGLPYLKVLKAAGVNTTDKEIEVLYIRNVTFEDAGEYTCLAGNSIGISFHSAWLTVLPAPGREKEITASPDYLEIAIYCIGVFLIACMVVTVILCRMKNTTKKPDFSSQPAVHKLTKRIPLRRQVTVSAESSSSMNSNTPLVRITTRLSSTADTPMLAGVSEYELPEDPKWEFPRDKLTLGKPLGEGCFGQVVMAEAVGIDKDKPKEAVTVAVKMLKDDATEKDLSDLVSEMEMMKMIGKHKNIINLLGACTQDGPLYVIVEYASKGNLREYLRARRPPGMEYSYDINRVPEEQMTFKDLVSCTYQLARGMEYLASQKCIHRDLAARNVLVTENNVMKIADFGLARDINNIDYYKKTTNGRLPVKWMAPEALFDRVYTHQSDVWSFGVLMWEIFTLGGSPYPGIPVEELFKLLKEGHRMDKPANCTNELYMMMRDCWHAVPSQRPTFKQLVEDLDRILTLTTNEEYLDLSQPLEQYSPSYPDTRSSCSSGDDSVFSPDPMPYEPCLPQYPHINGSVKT

Compound	IC50 (FGFR2 (h))	BAF3-KDR (MIN IL3) pIC50 [1]	BAF3-KDR (PLUS IL3) pIC50 [2]	BAF3-FGFR3 (MIN IL3) pIC50 [3]	BAF3-FGFR3 (PLUS IL3) pIC50 [4]	IC50 [2]	IC50 [4]	melting point
COc1cc(OC)cc(C(NCCNC(C)C)c2ccc3ncc(-c4cnn(C)c4)nc3c2)c1.Cl (single isomer, unassigned) [Compound 39]	> 1000 nM	<5	<5	<5	<5			
COc1cc(OC)cc(/C(=C/CNC(C)C)c2ccc3ncc(-c4cnn(C)c4)nc3c2)c1 [Compound 9]	87.1 nM	<5		6.82		> 10000 nM	> 10000 nM	
COc1cc(OC)cc(C(CC(=O)NC(C)C)c2ccc3ncc(-c4cnn(C)c4)nc3c2)c1 (stereo not drawn) [Compound 23]	> 1000 nM	<5		<5		> 10000 nM	> 10000 nM	186 °C
COc1cc(OC)cc(C(=O)c2ccc3ncc(-c4cnn(C)c4)nc3c2)c1 [Compound 2]	209 nM	<5		5.17		> 10000 nM	> 10000 nM	162 °C
COc1cc(OC)cc(C(O)(CNCCNC(C)C)c2ccc3ncc(-c4cnn(C)c4)nc3c2)c1 (single isomer, unassigned) [Compound 5]	~741 nM	<5		<5		> 10000 nM	> 10000 nM	
COc1cc(OC)cc(/C(=C\CN(C)C)c2ccc3ncc(-c4cnn(C)c4)nc3c2)c1 [Compound 10, {(Z)-3-(3,5-Dimethoxy-phenyl)-3-[3-(1-methyl-1H-pyrazol-4-yl)-quinoxalin-6-yl]-allyl}-dimethyl-amine]	15.8 nM	<5		6.27		> 10000 nM	> 10000 nM	164 °C
COc1cc(OC)cc(C(CCN2CCCC2=O)c2ccc3ncc(-c4cnn(C)c4)nc3c2)c1.Cl (stereo not drawn) [Compound 7]	38 nM	5.13		5.8		> 10000 nM	> 10000 nM	
COc1cc(OC)cc(C(CCNC(C)C)c2ccc3ncc(-c4cnn(C)c4)nc3c2)c1 (single isomer, unassigned) [Compound 32a]	851 nM	<5	<5	~5.03	<5			
CN(C)CCC(c1ccccc1)c1ccc2ncc(-c3cnn(C)c3)nc2c1 (stereo not drawn) [Compound 35]	> 1000 nM	<5		<5		> 10000 nM	> 10000 nM	
COc1cc(OC)cc(C(CCNCC(F)(F)F)c2ccc3ncc(-c4cnn(C)c4)nc3c2)c1.Cl (stereo not drawn) [Compound 33]	380 nM	<5		~5.11		> 10000 nM	> 10000 nM	162 °C
COc1cc(OC)cc(/C(=C\CNC(C)C)c2ccc3ncc(-c4cnn(C)c4)nc3c2)c1 [Compound 8, {(Z)-3-(3,5-Dimethoxy-phenyl)-3-[3-(1-methyl-1H-pyrazol-4-yl)-quinoxalin-6-yl]-allyl}-isopropyl-amine]	10.7 nM	5.18		6.72		> 10000 nM	> 10000 nM	164 °C
COc1cc(OC)cc(C(O)(CNCCNC(C)C)c2ccc3ncc(-c4cnn(C)c4)nc3c2)c1 (single isomer, unassigned) [Compound 6]	813 nM	<5		<5				
CNCC(O)(c1cc(OC)cc(OC)c1)c1ccc2ncc(-c3cnn(C)c3)nc2c1.Cl (single isomer, unassigned) [Compound 38]	> 1000 nM	<5	<5	<5	<5			169 °C
COc1cc(OC)cc(C(CC(C)(O)CNC(C)C)c2ccc3ncc(-c4cnn(C)c4)nc3c2)c1.Cl (stereo not drawn) [Compound 25]	~1000 nM	<5		5.13		> 10000 nM	> 10000 nM	
COc1cc(OC)cc(C(NCCNC(C)C)c2ccc3ncc(-c4cnn(C)c4)nc3c2)c1.Cl (single isomer, unassigned) [Compound 24]	324 nM	<5		5.29		> 10000 nM	> 10000 nM	
Cn1cc(-c2cnc3ccc(C(O)c4ccccc4)cc3n2)cn1 (stereo not drawn) [Compound 28]	2630 nM	<5		<5		> 10000 nM	> 10000 nM	
COc1cc(OC)cc(C(CCN(C)C)c2ccc3ncc(-c4cnn(C)c4)nc3c2)c1.Cl (stereo not drawn) [Compound 21]	67.6 nM	<5		6.32		> 10000 nM	> 10000 nM	
COc1cc(OC)cc(C(CCCN)c2ccc3ncc(-c4cnn(C)c4)nc3c2)c1.Cl (stereo not drawn) [Compound 40]	427 nM	<5		5.27		> 10000 nM	> 10000 nM	140 °C
COc1cc(OC)cc(/C(=C\CNCC(F)(F)F)c2ccc3ncc(-c4cnn(C)c4)nc3c2)c1 [Compound 14, {(Z)-3-(3,5-Dimethoxy-phenyl)-3-[3-(1-methyl-1H-pyrazol-4-yl)-quinoxalin-6-yl]-allyl}-(2,2,2-trifluoro-ethyl)-amine]	12.9 nM	<5		6.39		> 10000 nM	> 10000 nM	
COc1cc(OC)cc(C(CCNC(C)C)c2ccc3ncc(-c4cnn(C)c4)nc3c2)c1 (single isomer, unassigned) [Compound 19a]	17.8 nM	<5		6.67		> 10000 nM	> 10000 nM	
